Data published in EPA's CvTdb concentration-time database.

Key:
Rat [1] = experiment: concentration in plasma after dosing; settings: dosed: 2-Hydroxy-4-methoxybenzophenone, 100 mg/kg, oral, Male, F344
Mouse [2] = experiment: concentration in plasma after dosing; settings: 3 h; dosed: 2-Hydroxy-4-methoxybenzophenone; 250 mg/kg; oral; Male; B6C3F1
Mouse [3] = experiment: concentration in plasma after dosing; settings: 0.25 h; dosed: 2-Hydroxy-4-methoxybenzophenone; 50 mg/kg; iv; Female; B6C3F1
Mouse [4] = experiment: concentration in plasma after dosing; settings: dosed: 2-Hydroxy-4-methoxybenzophenone, 100 mg/kg, oral, Female, B6C3F1
Rat [5] = experiment: concentration in plasma after dosing; settings: 5 min; dosed: Nitrite; 80 mg/kg; oral; Female; F344
Rat [6] = experiment: concentration in plasma after dosing; settings: dosed: Nitrite, 20 mg/kg, iv, Male, F344
Rat [7] = experiment: concentration in plasma after dosing; settings: dosed: Nitrite, 80 mg/kg, oral, Female, F344
Rat [8] = experiment: concentration in kidney after dosing; settings: 24 h; dosed: Perfluorooctanoic acid; 80 mg/kg; oral; Female; Harlan Sprague Dawley
Rat [9] = experiment: concentration in liver after dosing; settings: 12 h; dosed: Fluorotelomer alcohol 8+2; 24 mg/kg; oral; Male; Harlan Sprague Dawley
Rat [10] = experiment: concentration in kidney after dosing; settings: 192 h; dosed: Perfluorooctanoic acid; 12 mg/kg; oral; Male; Harlan Sprague Dawley
Rat [11] = experiment: concentration in kidney after dosing; settings: 6 h; dosed: Fluorotelomer alcohol 8+2; 80 mg/kg; oral; Female; Harlan Sprague Dawley
Rat [12] = experiment: concentration in kidney after dosing; settings: 12 h; dosed: Fluorotelomer alcohol 8+2; 80 mg/kg; oral; Female; Harlan Sprague Dawley
Rat [13] = experiment: concentration in kidney after dosing; settings: 1 h; dosed: Fluorotelomer alcohol 8+2; 80 mg/kg; oral; Female; Harlan Sprague Dawley
Rat [14] = experiment: concentration in kidney after dosing; settings: 12 h; dosed: Perfluorooctanoic acid; 80 mg/kg; oral; Female; Harlan Sprague Dawley
Rat [15] = experiment: concentration in brain after dosing; settings: 6 h; dosed: Perfluorooctanoic acid; 80 mg/kg; oral; Female; Harlan Sprague Dawley
Rat [16] = experiment: concentration in plasma after dosing; settings: 1.5 h; dosed: Potassium Perfluorobutane Sulfonate; 4 mg/kg; iv; Male; F344
Rat [17] = experiment: concentration in brain after dosing; settings: 0.5 h; dosed: Potassium Perfluorobutane Sulfonate; 20 mg/kg; oral; Male; Harlan Sprague Dawley
Rat [18] = experiment: concentration in plasma after dosing; settings: 1.5 h; dosed: Potassium Perfluorobutane Sulfonate; 4 mg/kg; iv; Male; F344; remark: listed apart in the source
Rat [19] = experiment: concentration in brain after dosing; settings: 0.5 h; dosed: Potassium Perfluorobutane Sulfonate; 20 mg/kg; oral; Female; Harlan Sprague Dawley
Rat [20] = experiment: concentration in kidney after dosing; settings: 6 h; dosed: Potassium Perfluorobutane Sulfonate; 20 mg/kg; oral; Male; Harlan Sprague Dawley
Rat [21] = experiment: concentration in liver after dosing; settings: 0.5 h; dosed: Potassium Perfluorobutane Sulfonate; 20 mg/kg; oral; Female; Harlan Sprague Dawley
Rat [22] = experiment: concentration in plasma after dosing; settings: dosed: Potassium Perfluorobutane Sulfonate, 4 mg/kg, oral, Male, Harlan Sprague Dawley
Rat [23] = experiment: concentration in kidney after dosing; settings: 3 h; dosed: Potassium Perfluorobutane Sulfonate; 20 mg/kg; oral; Male; Harlan Sprague Dawley
Rat [24] = experiment: concentration in kidney after dosing; settings: 6 h; dosed: Potassium Perfluorobutane Sulfonate; 20 mg/kg; oral; Male; Harlan Sprague Dawley; remark: listed apart in the source
Rat [25] = experiment: concentration in plasma after dosing; settings: 1.5 h; dosed: Potassium Perfluorobutane Sulfonate; 4 mg/kg; oral; Male; Harlan Sprague Dawley
Rat [26] = experiment: concentration in brain after dosing; settings: 1 h; dosed: Potassium Perfluorobutane Sulfonate; 20 mg/kg; oral; Male; Harlan Sprague Dawley
Rat [27] = experiment: concentration in kidney after dosing; settings: 3 h; dosed: Potassium Perfluorobutane Sulfonate; 20 mg/kg; oral; Male; Harlan Sprague Dawley; remark: listed apart in the source
Rat [28] = experiment: concentration in kidney after dosing; settings: 1 h; dosed: Potassium Perfluorobutane Sulfonate; 20 mg/kg; oral; Female; Harlan Sprague Dawley
rat [29] = experiment: concentration in kidney after dosing (ugEq/g tissue); settings: dosed: benzo[a]pyrene, iv, male, Wistar

COc1ccc(C(=O)c2ccccc2)c(O)c1 [2-Hydroxy-4-methoxybenzophenone]
concentration in plasma [ng/mL]
Settings	0.25 h	2 h	2.5 min	3 h	4 h	10 min
Mouse [4]	81	4.58	15.3	5.05	–	37.3
Rat [1]	218	–	–	6.64	28.5	106

Settings	concentration in plasma [ng/mL]
Mouse [2]	45.1
Mouse [3]	5560

O=N[O-] [Nitrite]
Settings	concentration in plasma [ng/mL]
Rat [5]	7300

concentration in plasma [ng/mL]
Settings	1 h	1.5 h	2 h	20 min
Rat [6]	–	2000	–	2600
Rat [7]	21600	–	13000	–

O=C(O)C(F)(F)C(F)(F)C(F)(F)C(F)(F)C(F)(F)C(F)(F)C(F)(F)F [Perfluorooctanoic acid]
Settings	concentration in brain [ng/g]	concentration in kidney [ng/g]	concentration in liver [ng/g]
Rat [8]	–	12300	–
Rat [9]	–	–	1350
Rat [10]	–	21000	–
Rat [11]	–	2040	–
Rat [12]	–	711	–
Rat [13]	–	568	–
Rat [14]	–	93700	–
Rat [15]	3230	–	–

O=S(=O)([O-])C(F)(F)C(F)(F)C(F)(F)C(F)(F)F.[K+] [Potassium Perfluorobutane Sulfonate]
Settings	concentration in brain [ng/g]	concentration in kidney [ng/g]	concentration in liver [ng/g]	concentration in plasma [ng/mL]
Rat [16]	–	–	–	1740
Rat [17]	518	–	–	–
Rat [18]	–	–	–	11400
Rat [19]	518	–	–	–
Rat [20]	–	13100	–	–
Rat [21]	–	–	51300	–
Rat [23]	–	20700	–	–
Rat [24]	–	11000	–	–
Rat [25]	–	–	–	12600
Rat [26]	1210	–	–	–
Rat [27]	–	27100	–	–
Rat [28]	–	19300	–	–

Rat [22]
Settings	concentration in plasma [ng/mL]
1 h	14800
24 h	603

c1ccc2c(c1)cc1ccc3cccc4ccc2c1c34 [benzo[a]pyrene]
concentration in kidney, rat [29]
Settings	2 mg/kg	6 mg/kg	15 mg/kg
0.5 h	4.64	7.09	20.1
0.75 h	4.02	7.57	16.8
1 h	2.67	6.12	15.1
1.5 h	1.31	2.25	13.6
2 h	0.21	0.8	5.37
3 h	0.23	0.2	1.77
4 h	0.07	0.15	0.8
5 h	0.06	0.09	0.36
5 min	7	12.4	30.8
6 h	0.08	0.11	0.35
8 h	0.08	0.09	0.25
10 min	7.09	15.9	25.2
20 min	7.68	11.7	22.5
24 h	–	–	0.05
32 h	–	–	0.01
